Measured values taken from US6939850B2, “Altered human interleukin-1β convertase (ICE), NEDD-2, and C. elegans ced-3 polypeptides and uses therefor” (Massachusetts Institute of Technology, priority 1992, dated 2005).

How the values were obtained:
[1] = test system: undifferentiated neurons and precursor cells in the neural tube; assay: Cell death in the early neural tube in vivo; design: species or system chick
lumbar motoneurons = assay: Naturally occurring lumbar motoneuron cell death in vivo; design: species or system chick
Protocol: In the first model, embryos were treated with a single dose of an ICE inhibitor or control protease inhibitor on embryonic day 8 (E8), the time of maximum naturally occurring motoneuron cell death (Hamburger et al., J. Morph. 88:49-92 (1951)). Embryos treated in vivo with the peptide inhibitors appeared to develop normally and there were no gross abnormalties. […] 24 hours after treatment there is a similar reduction in the number of pyknotic cells and a significant increase in the number of healthy motoneurons (Table 6B). […] The ability of ICE inhibitors to block the naturally occurring cell death of interdigital cells in the developing limb was also studied. These cells undergo PCD as a means of sculpting the digits in many vertebrates. When embryos were treated with either ICE inhibitor on embryonic days, E6 and E7, there was a substantial reduction in the number of pyknotic cells between the digits of the hindlimb (FIG. 14).
Peptides. Two peptide inhibitors of ICE, Acetyl-Tyr-Val-Ala-Asp-aldehyde (Ac-YVAD-CHO) and Acetyl-Tyr-Val-Ala-Asp-chloromethylketone (Ac-YVAD-CMK) and two control peptide inhibitors, Acetyl-Leu-Leu-Arg-aldehyde (Ac-LLR-CHO; Leupeptin) and n-tosyl-Lys-chloromethyl-ketone (Tos-Lys-CMK) were synthesized by Bachem Biosciences (King of Prussia, Pa.) and shown by thin layer chromatography and HPLC to be greater than 98% pure. […] Methods for administration of peptides to examine effects on naturally occurring motoneuron cell death in vivo. Although cell death of lumbar motoneurons occurs between E6 and E12, the peak period of death (i.e., the greatest number of pyknotic cells) occurs on E8 (Oppenheim et al., J Comp. Neurol. 177:87-112 (1978)). For these experiments, embryos were given a single administration of an agent on E8 0 hr and sacrificed 15 hours later. […] Ac-YVAD-CMK and Tos-Lys-CMK were administered in a solution of DMSO/BSA, whereas Ac-YVAD-CHO and leupeptin (Sigma) were in BSA alone. The solutions (50-100 μl) were dropped onto the highly vascularized chorioallantoic membrane through a window in the shell. The control groups included both DMSO and BSA or vehicle alone. Embryos were killed and staged by the Hamburger-Hamilton series (Hamburger and Hamilton, J. Morph. 88:49-92 (1951)). The thoraco-lumbar spinal cord was dissected, fixed in Camoys or Bouins fixative, processed for paraffin histology, serially sectioned (10-12 μm) and stained with either thionin or hematoxylin and eosin. Pyknotic motoneurons were identified based on criteria previously described (Chu-Wang and Oppenheim, J. Comp. Neurol. 177:33-58 (1978); Clarke and Oppenheim In Methods in Cell Biology Series; Cell Death; eds: Schwartz and Osborne. Academic Press. New York, N.Y. In press.) and were counted in every 10th or 20th section through the entire lumbar enlargement. The total number of pyknotic cells were then estimated by multiplying these values by 10 or 20. All cell counts were performed by individuals blinded with regard to drug treatment of the embryos. Methods for limb bud removal experiments. A unilateral limb bud removal was performed on E2 as described previously (Oppenheim et al., J. Comp. Neurol. 177:87-112 (1978)). Because induced cell death following limb removal begins on E5 (before that there is no difference in the number of motoneurons between the operated or unoperated sides) embryos were given one treatment of Ac-YVAD-CHO (40 μg) or BSA (control) at E5-0 hr and another at E5-12 hours (total peptide administered was 80 μg). Animals were killed at E6-0 hr. Methods were the same as described above except the section thickness was 6-8 μm (see Method for Administration of Peptides, above). Methods for limb bud interdigital regions. […]

cervical motoneurons = assay: Cervical motoneuron cell death in vivo; design: species or system chick
From the text: The ability of the ICE inhibitors to block cell death in two classes of neurons whose naturally occurring death appears to be independent of target interaction was also studied. First, motoneurons in the cervical spinal cord undergo PCD between E4 and E5, with maximum levels occurring at E4.5.

ICE = biological target: T1, ICE (Homo sapiens, UniProt P29466); conditions: protease activity of ICE; cited from earlier work
T1 sequence (P29466 120-297): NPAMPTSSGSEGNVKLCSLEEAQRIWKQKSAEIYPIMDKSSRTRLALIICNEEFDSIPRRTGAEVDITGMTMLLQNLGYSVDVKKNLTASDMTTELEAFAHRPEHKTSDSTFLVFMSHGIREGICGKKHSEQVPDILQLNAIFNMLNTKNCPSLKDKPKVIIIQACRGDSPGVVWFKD
T1 sequence (P29466 317-404): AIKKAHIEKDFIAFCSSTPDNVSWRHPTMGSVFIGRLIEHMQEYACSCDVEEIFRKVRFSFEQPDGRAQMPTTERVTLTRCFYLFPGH

[2] = 24 hours post treatment, mean ±SD

For “Acetyl-Tyr-Val-Ala-Asp-aldehyde [Ac-YVAD-CHO]”, the “survival promoting effects on floorplate or dorsal spinal cord cells” value ([1]; compared to control animals) was “no survival promoting effects”, the “Pyknotic Cells in the Early Neural Tube, Dorsal Spinal Cord” value ([1]; mean ±SD) was 1.350 ± 0.297 and the “Pyknotic Cells in the Early Neural Tube, Floor Plate” value ([1]; mean ±SD) was 1.115 ± 0.246. For the same substance, the “Pyknotic Lumbar Motoneurons on E8” value (lumbar motoneurons; 15 hours post treatment, single administration of 400 μg on E8, mean ±SD) was 146 ± 35, the “Healthy Motoneurons (lumbar) on E9” value (lumbar motoneurons; [2]) was 15,680 ± 684 and the “Pyknotic Motoneurons (lumbar) on E9” value (lumbar motoneurons; [2]) was 150 ± 30. The “effectiveness for inhibition of motoneuron PCD in vivo” value (lumbar motoneurons; FIG. 13) was “dose dependent”, the “survival promoting effects on cervical motoneurons” value (cervical motoneurons; compared to control or Ac-LLR-CHO treated animals) was “no survival promoting effects” and the “Pyknotic Cervical Motoneurons on E4.5” value (cervical motoneurons; mean ±SD) was 25.9 ± 3.4. The Ki (ICE) was 0.76 nM.
